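Grown in 96-well plates, cells were treated for 48 hours with each compound at five concentrations. Insufficient inhibition: endpoint recorded as highest concentration tested. GI50: concentration for 50% inhibition of growth.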 Active and inactive are the calls of the source. No stated cut-off is given here; in the data, active = GI50 up to about 1.1 µM and inactive = higher.
Experiments:
Assay in all cases: NCI anticancer screen, dose series, 48 h
[1] = tested on: 786-0
[2] = tested on: ACHN
[3] = tested on: COLO 205
[4] = tested on: HL-60
[5] = tested on: HT-29
[6] = tested on: IGROV-1
[7] = tested on: KM12
[8] = tested on: MOLT-4
[9] = tested on: SF-295
[10] = tested on: SF-539
[11] = tested on: SK-MEL-28
[12] = tested on: SK-MEL-2
[13] = tested on: SK-MEL-5
[14] = tested on: SK-OV-3
[15] = tested on: SW-620
[16] = tested on: CAKI-1
[17] = tested on: NCI-H226
[18] = tested on: SN12C
[19] = tested on: UACC-62

Measured: GI50

COc1ccc2c(c1)C1C(CO2)C(c2ccccc2)=NN1c1ccccc1 (centres undefined)
inactive: [1] > 100 µM | [2] > 100 µM | [3] > 100 µM | [4] 99.5 µM | [5] > 100 µM | [6] > 100 µM | [7] > 100 µM | [8] 94.8 µM | [9] > 100 µM | [10] > 100 µM | [11] 70.3 µM | [12] > 100 µM | [13] > 100 µM | [14] > 100 µM | [15] > 100 µM

O=S(=O)(c1ccccc1)C1CN2OC1(S(=O)(=O)c1ccccc1)CC21CCCCC1 (centres undefined)
inactive: [1] > 100 µM | [2] > 100 µM | [16] 73.3 µM | [3] > 100 µM | [4] 44.9 µM | [5] > 100 µM | [6] > 100 µM | [7] > 100 µM | [8] 40.7 µM | [17] > 100 µM | [9] > 100 µM | [10] > 100 µM | [11] > 100 µM | [12] > 100 µM | [14] > 100 µM | [18] > 100 µM | [15] > 100 µM | [19] > 100 µM

Nc1ccccc1C(=O)C(Br)C(Br)c1ccc2c(c1)OCO2 (centres undefined)
inactive: [1] 31 µM | [2] 18.2 µM | [3] 14.2 µM | [4] 40.7 µM | [5] 17.3 µM | [6] 28.6 µM | [7] 18 µM | [8] 25.1 µM | [17] 20 µM | [9] 27.6 µM | [10] 18.4 µM | [11] 23.4 µM | [12] 16.9 µM | [14] 28.6 µM | [18] 24.9 µM | [15] 32.6 µM | [19] 16.8 µM

O=C(Nc1cccc([N+](=O)[O-])c1)/C(=N\NC(=O)c1ccncc1)c1nc2ccc([N+](=O)[O-])cc2nc1O
inactive: [1] > 100 µM | [2] 19.7 µM | [16] 38.6 µM | [3] > 100 µM | [5] 74.1 µM | [6] > 100 µM | [7] 42.2 µM | [8] 46.9 µM | [17] 42.4 µM | [9] 33.8 µM | [10] 32.8 µM | [11] 29.2 µM | [12] > 100 µM | [13] 38 µM | [14] > 100 µM | [18] > 100 µM | [15] 77.3 µM | [19] 58.7 µM

N#CC(C(=O)/C(=N/NC(=O)c1ccccc1O)C(C#N)c1ccc(Cl)cc1)c1ccc(Cl)cc1 (centres undefined)
inactive: [1] 15.9 µM | [2] 16 µM | [3] 29.9 µM | [4] 15.5 µM | [5] 12.1 µM | [7] 15.8 µM | [8] > 10 µM | [17] 16.9 µM | [9] 16.4 µM | [10] 17.3 µM | [11] 14.4 µM | [12] 16.5 µM | [14] 30.8 µM | [18] 13.2 µM | [15] 15.2 µM

COC(=O)C1CC/C(=N/C2c3ccccc3-c3ccccc32)N1 (centres undefined)
inactive: [1] > 100 µM | [2] > 100 µM | [16] > 100 µM | [3] 47.8 µM | [4] > 100 µM | [5] > 100 µM | [6] > 100 µM | [7] > 100 µM | [8] 24.2 µM | [17] > 100 µM | [9] > 100 µM | [11] > 100 µM | [12] > 100 µM | [14] > 100 µM | [18] > 100 µM | [15] > 100 µM | [19] 63 µM

COP(=O)(Cc1ccc(/C=C/C#N)o1)OC
inactive: [1] > 100 µM | [3] > 100 µM | [4] > 100 µM | [5] > 100 µM | [6] > 100 µM | [7] > 100 µM | [8] > 100 µM | [17] > 100 µM | [10] > 100 µM | [11] > 100 µM | [14] > 100 µM | [15] > 10 µM | [19] > 100 µM

Cc1[nH]c(=O)nc(N/N=C/c2ccc(O)cc2)c1C(=O)Nc1ccc(Cl)cc1
inactive: [1] > 100 µM | [2] > 100 µM | [16] > 100 µM | [3] > 100 µM | [4] > 100 µM | [6] > 100 µM | [7] > 100 µM | [8] > 100 µM | [17] 65.2 µM | [10] > 100 µM | [11] > 100 µM | [12] > 100 µM | [13] 88.1 µM | [14] > 100 µM | [18] > 100 µM | [15] > 100 µM | [19] > 100 µM

N#CC(C(=O)/C(=N\NC(N)=O)C(C#N)c1ccccc1)c1ccccc1 (centres undefined)
inactive: [1] > 100 µM | [2] > 100 µM | [16] > 100 µM | [3] > 100 µM | [4] > 100 µM | [5] > 100 µM | [6] > 100 µM | [7] > 100 µM | [8] > 100 µM | [17] > 100 µM | [9] > 100 µM | [10] > 100 µM | [11] > 100 µM | [12] > 100 µM | [14] > 100 µM | [18] > 100 µM | [15] > 100 µM | [19] > 100 µM

N#Cc1ccc2cc3c(cc2c1)OCO3
inactive: [1] > 100 µM | [2] 59.3 µM | [3] > 100 µM | [4] 77.1 µM | [5] > 100 µM | [6] > 100 µM | [7] > 100 µM | [8] 49.2 µM | [17] 39.4 µM | [9] > 100 µM | [10] 27 µM | [11] > 100 µM | [12] > 100 µM | [14] > 100 µM | [18] > 100 µM | [19] > 100 µM

CNC(N)NC
inactive: [1] > 100 µM | [2] > 100 µM | [3] > 100 µM | [4] > 100 µM | [5] > 100 µM | [6] > 100 µM | [7] > 100 µM | [8] > 100 µM | [17] > 100 µM | [9] > 100 µM | [10] > 100 µM | [11] > 100 µM | [12] > 100 µM | [13] > 100 µM | [14] > 100 µM | [18] > 100 µM | [15] > 100 µM | [19] > 100 µM

COc1ccc2c(c1)CCC(OS(=O)(=O)CC13CCC(CC1=O)C3(C)C)C2=O (centres undefined)
inactive: [1] 18.8 µM | [2] 35.8 µM | [16] 40.6 µM | [3] 33.7 µM | [4] 18.5 µM | [7] 19.5 µM | [8] 20.8 µM | [17] 29 µM | [10] 21.5 µM | [11] 36.3 µM | [12] 23.9 µM | [13] 17.5 µM | [18] 19 µM | [15] 26.4 µM | [19] 16.9 µM

Cc1cc2nc3c(N)nn(CCCN(C)C)c3nc2cc1C
inactive: [1] 68.9 µM | [2] 60.3 µM | [16] > 100 µM | [3] 55 µM | [5] 38.3 µM | [7] 93.8 µM | [9] > 100 µM | [10] > 100 µM | [11] > 100 µM | [13] > 100 µM | [14] > 100 µM | [18] > 100 µM | [15] 56.9 µM | [19] 95.7 µM

C/C1=N\[N-]C(=O)c2ccccc2C(=O)N/N=C(\C)c2cccc1n2.O=[N+]([O-])[O-].[Zn+2]
inactive: [1] > 100 µM | [2] > 100 µM | [16] > 100 µM | [3] > 100 µM | [5] > 100 µM | [6] > 100 µM | [7] > 100 µM | [8] > 100 µM | [9] > 100 µM | [10] > 100 µM | [11] > 100 µM | [12] > 100 µM | [13] > 100 µM | [14] > 100 µM | [18] > 100 µM | [15] > 100 µM | [19] > 100 µM

COc1cc2c(cc1OC)C(O)[C@H](Br)C(C)(C)O2 (some centres undefined)
inactive: [1] > 100 µM | [2] > 100 µM | [3] > 100 µM | [4] > 100 µM | [5] > 100 µM | [6] > 100 µM | [7] > 100 µM | [8] > 100 µM | [17] > 100 µM | [9] > 100 µM | [10] > 100 µM | [11] > 100 µM | [12] > 100 µM | [13] > 100 µM | [14] > 100 µM | [18] > 100 µM | [15] > 100 µM | [19] > 100 µM

Cn1cnnc1Sc1c([N+](=O)[O-])ncn1C
inactive: [1] > 100 µM | [2] > 100 µM | [16] > 100 µM | [3] 34.3 µM | [5] > 100 µM | [6] > 100 µM | [7] > 100 µM | [8] 31 µM | [17] > 100 µM | [9] > 100 µM | [10] > 100 µM | [11] 36.9 µM | [12] 50.6 µM | [13] > 100 µM | [14] > 100 µM | [18] > 100 µM | [15] 72.4 µM | [19] > 100 µM

Reference: ChEMBL document CHEMBL1201862, “PubChem BioAssay data set” (2004)
